Experimental data published in patent publication US8546556B2, “Carbocyclic alpha-L-bicyclic nucleic acid analogs” (Isis Pharmaceuticals, Inc, priority 2007, dated 2013).

Test system: snake venom phosphodi-esterase (SVPD)
Settings: SVPD 0.0005 U/mL, 50 mM Tris-HCl pH 7.5, 8 mM MgCl2, 37° C., oligomer 5 μm; full-length oligomer by IP-HPLC/MS
Experimental: [drawing 26] • The nuclease stability was determined after treatment with snake venom phosphodi-esterase (SVPD). Each of the test oligomers was incubated with SVPD (0.0005 U/mL) in 50 mM Tris-HCl, pH 7.5, 8 mM MgCl2 at 37° C. to a final concentration of 5 μm in a total volume of 400 μL. At each time point, a 50 μL aliquot and quenching buffer (8 M Urea, 50 mM EDTA) was placed in a 500 μL, microfuge tube. Kinetic time points were taken at 0, 0.5, 1, 1.5, 2, and 4 minutes for 7157; 0, 0.5, 1, 1.5, 2, 2.5, 3 and 5 minutes for 440140. The samples were then cooled on ice and spun in a Microfuge to bring the entire volume to the bottom of the tube. Samples were kept frozen until ready for LC/MS analysis.
For each sample the oligomer and metabolites were separated and analyzed using IP-HPLC/MS techniques. Samples were diluted to a concentration of 1 μM with quenching buffer in a microsampling vial and 50 μL of the sample was injected into the IP-HPLC column (YMC ODS-AQ™ 1.0 mm×150 mm, 3 μm, 120 A°). The loading buffer used was 25 mM TBAA (tributyl ammonium acetate) in 25% acetonitrile. […] The percentages of the full-length oligomers were calculated by integration using Caesar v. 6 software (Senetec Software, New Jersey) and the oligonucleotide half-lives were calculated using GraphPad Prism 4.

## TTTTTTTTTTTT [ISIS 7157]
  Half Life: 24 s
